Data set [1] has as its system HIV-1 (IIIB strain). In words: Anti-HIV cytoprotection assay (XTT), HIV-1 IIIB in CEM-SS cells. The class given is cell-based. Particulars: CEM-SS cell line, read-out: Inhibitory activity (EC50) against HIV-1 (IIIB strain). Put shortly: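 CEM-SS cells infected with a pre-titrated virus dose killing 85–95% of cells by day 6; protection from HIV-induced death read by XTT formazan. Compounds screened in triplicate at 30 and 10 nM, actives retested at 2 nM; AZT six-concentration curve on each plate as positive control.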
For orientation: Tetrazolium dyes change colour on reduction, which living cells bring about.

In data set [2] the test system is human plasma proteins. In words: Plasma protein binding by equilibrium dialysis, human. The class given is in vitro ADME. The conditions noted are these: for Binding class / Extraction / Permeability: human; for Bound: human plasma diluted to 50%, 37° C.; for Bound / Extraction / Permeability: 1 μM, 4 h; for Permeability: dialysis membrane. The procedure: (§1) To assess protein binding, pooled samples of blood plasma diluted with phosphate buffer up to 50% were used. The test was carried out in a teflon coated 48-well dialysis plate. Each well contained two separate chambers separated by a vertical semipermeable dialysis membrane with 8 kDa pores. A plasma sample with 1 μM of the test compound was placed into one of the chambers, and a buffer solution (pH=7.2) was placed in the other chamber. Over time, at 37° C. while rocking, passive diffusion of the unbound compound occurred and after 4 hours the equilibrium state between the chambers with plasma and the buffer solution was reached. The amount of free fraction was evaluated by HPLC-MS/MS following precipitation of the proteins by acetonitrile. Also, the study involved evaluation of stability of the substance during the 4-hour period and passive permeability through the dialysis membrane in the buffer by mass balance. Warfarin was used as the control compound. The results are presented in Table 4, from which it follows that the compounds of general formula 1.1 have a high degree of binding to human and rat plasma proteins.
(In equilibrium dialysis only unbound substance equilibrates across the membrane.)

In data set [3] the test system is rat plasma proteins. In words: Plasma protein binding by equilibrium dialysis, rat. The conditions noted are these: for Binding class / Extraction / Permeability: rat; for Bound: rat plasma diluted to 50%, 37° C.; for Bound / Extraction / Permeability: 1 μM, 4 h; for Permeability: dialysis membrane. Format: in vitro ADME. The procedure: as §1

Where two headings read alike, the source gives them in different places.

As a reminder, the EC50 is the concentration giving half of the maximal effect.

With `C[C@H]1CO[C@@H]2Cn3cc(C(=O)NCc4ncc(F)cc4F)c(=O)c(O)c3C(=O)N12` [Compound 1.1.17, (3S,11aR)-6-hydroxy-N-[(3,5-difluoropyridin-2-yl)methyl]-3-methyl-5,7-dioxo-2,3,5,7,11,11a-hexahydro[1,3]oxazolo[3,2-a]pyrido[1,2-d]pyrazine-8-carboxamide], in data set [1] (Human immunodeficiency virus 1, IIIB, CEM-SS), the half-maximal effective concentration (EC50) amounted to 0.24 nM. For the same compound, in data set [2], the Binding class entry was “High”, the Bound was 98.8%, the Extraction is 94.6% and the Permeability is recorded as 84.8%. In data set [3], the Binding class entry is “High”, the Bound was 99.9%, the Extraction worked out at 108% and the Permeability is reported as 90.9%.

Consider `C[C@H]1CO[C@@H]2Cn3cc(C(=O)NCc4ccc(F)nc4F)c(=O)c(O)c3C(=O)N12` [Compound 1.1.19, (3S,11aR)-6-hydroxy-N-[(2,6-difluoropyridin-3-yl)methyl]-3-methyl-5,7-dioxo-2,3,5,7,11,11a-hexahydro[1,3]oxazolo[3,2-a]pyrido[1,2-d]pyrazine-8-carboxamide], for which the EC50 in data set [1] turned out to be 0.24 nM. In data set [2], the Binding class entry was “High”, the Bound stood at 99.0%, the Extraction stood at 95.0% and the Permeability came out at 84.0%. Moreover, in data set [3], the Binding class result is “High”, the Bound came to 98.9%, the Extraction was 94.5% and the Permeability was 83.8%.

The values above are taken from patent US20230020329A1, “Annelated 9-hydroxy-1,8-dioxo-1,3,4,8-tetrahydro-2H-pyrido[1,2-a]pyrazine-7-carboxamides as HIV integrase inhibitors, methods of preparation and application thereof” (priority 2019, published 2023).
